Tests used:
Format in all cases: in vivo, human
[1] = Comparative sensory study: sweetened fiber vs mixture of sweetener and fiber vs sweetener alone (Example 8); conditions: 9-point hedonic scale, 10% in water, N=12, FIG. 6
Experimental: The sensory characteristics of the sweetened fiber of the present disclosure were evaluated against a simple mixture of dietary fiber and stevia extract or stevia extract alone. The preference towards the sweetened fiber of the present disclosure, a mixture of dietary fiber and stevia extract, or stevia extract alone was determined. Any sensory difference between the sweetened fiber of the present disclosure versus a mixture of dietary fiber and stevia extract was evaluated.
Study design: randomized crossover. Twelve adults were recruited for the study. Samples were evaluated for pleasantness using 9-point hedonic scales (Peryam, D. R., Girardot, N. F. (1952). Advanced taste test method. Food Engineering, 24, 58-61, 194.). Unstructured scales such as visual analogue scales (VAS) are also used for the sensory evaluation of food (Baten, W. D. (1946). Organoleptic tests pertaining to apples and pears. Journal of Food Science, 11, 84-94.). The intensity of off-taste, bitterness and sweet aftertaste sweetness were determined using a 10-point scale. […]
Data analysis: The normality of the data was evaluated using D'Agostino & Pearson omnibus normality test. If the data didn't follow a normal distribution, the statistical significance of preference and intensity was assessed with the Kruskal-Wallis test using an alpha criterion of 5%. […]

[2] = Sensory evaluation: sucrose vs sweetened fiber vs stevia extract (Example 9); conditions: score 1 to 100; 10% sucrose, 10% sweet fiber, 0.05% RebM; FIG. 7
Experimental: A sensory evaluation session was conducted at BioFoodTech, to determine the taste difference between sucrose, the sweetened fiber of the present disclosure and stevia extract solutions. A group of twelve panelists formed a panel for the sensory evaluation. The ranking test measured the overall difference and intensity score for sensory attributes, including the strength of flavor, bitterness, liquorice taste and off-flavor.
A group of experienced panelists from BioFoodTech formed a panel for a sensory evaluation session to determine the quality difference between the sweet product samples.
Three 250 mL samples were prepared (10% solutions of sucrose, 10% the sweetened fiber of the present disclosure and 0.05% solution of Rebaudioside M (RebM). A sensory code consisting of a random 3-digit number was assigned to each sample.
Twelve experienced panelists were divided into two groups. A complete block design was chosen for the sensory evaluation of the […], including a ranking test used to determine the overall difference and intensity scoring for four […] attributes (strength of flavor, bitterness, liquorice taste and off-flavor). The four coded samples were presented to each panelist in a balanced order throughout the evaluation.
In the individual attributes evaluation, the panelists were asked to quantify the difference of specific attributes among the four samples by scoring from 1 to 100 (1 for none and 100 for the strongest, see FIG. 7) to reflect the intensity of the attribute best.

[3] = Sensory testing by a panel of twelve tasters (Example 4); conditions: 10% solution
Experimental: The taste of the sweetened fiber of the present disclosure prepared according to Example 1 was assessed by an external third party using a panel of tasters. A group of twelve panelists formed a panel for the sensory evaluation. The ranking test was used to measure the overall difference and intensity score for four sensory attributes, flavor, aftertaste, and mouthfeel. Each panelist evaluated all four samples. […] Sample Preparation: Two 250 mL samples were prepared (10% solutions of sucrose (control) and corn sweetened fiber of Example 1-1. A sensory code consisting of a random 3-digit number was assigned to each sample. Taste Session: The sensory evaluation was carried out at BioFoodTech's Sensory Lab. Twelve experienced panelists were divided into two groups. A complete block design was chosen for the sensory evaluation of the four samples, including a ranking test used to determine the overall difference. Statistical Analysis for the Data: For the individual attributes, Analysis of Variance (ANOVA) and the Tukey-Kramer HSD test were used to analyze the difference among sample means of individual attributes at a 5% significance level. For the Ranking test, a Friedman-type statistic was used to determine if there was a statistically significant difference among samples at a 5% significance level. All statistical analyses were done using the JMP®8 (SAS Institute Inc., Cary, NC).

[4] = Double-blinded randomized crossover sensory study: sweetened fiber vs sucrose (Example 10); conditions: 10% solution
Experimental: The sensory characteristics of an example of the sweetened fiber of the present disclosure were evaluated and compared to those of sucrose. Any preference towards the exemplary sweetened fiber of the present disclosure or sucrose solutions was determined. The sensory acceptance of the exemplary sweetened fiber of the present disclosure and sucrose was evaluated. Study design: double-blinded, randomized crossover. Sixty adults (18-65 years old, 30 males and 30 females) were recruited for the study. […] Samples were evaluated for pleasantness, taste, flavour, sweetness, and mouthfeel using 9-point hedonic scales ([…]. (1952). Advanced taste test method. Food Engineering, 24, 58-61, 194). […] The intensity of sweetness, bitterness, and metallic taste was determined using a 100 mm Visual Analogue Scale (VAS). […] Data analysis: The preference towards either blinded samples of 10% solution of Sucrose or 10% solution of the exemplary sweetened fiber of the present disclosure was determined with a forced paired preference test ([…]., Heymann, H. (2010). Sensory evaluation of food. Springer, New York, NY.). […] If there was an effect of sex (P≤0.05), the data was analyzed separately for males and females. If there was no effect of sex (P>0.05), the pooled data for males and females was analyzed with the Friedman test followed by Dunn's multiple comparisons. […]

Structure (SMILES) | Pleasantness [1] | Mean score, bitterness [2] | Mean score, liquorice taste [2] | Mean score, off-flavor [2] | Mean score, strength of flavor [2] | Rank mean (ranking taste preference) [3] | RankSum (ranking taste preference) [3] | Mouthfeel ([3]; n = 12) [%] | Off-flavour ([3]; n = 12) [%] | Sweetness ([3]; n = 12) [%] | Taste preference ([3]; n = 12) [%] | Mean acceptance values on hedonic scales [4]
C=C1C[C@@]23CC[C@H]4[C@@](C)(CCC[C@@]4(C)C(=O)O[C@@H]4O[C@H](CO)[C@@H](O)[C@H](O[C@@H]5O[C@H](CO)[C@@H](O)[C@H](O)[C@H]5O)[C@H]4O[C@@H]4O[C@H](CO)[C@@H](O)[C@H](O)[C@H]4O)[C@@H]2CC[C@]1(O[C@@H]1O[C@H](CO)[C@@H](O)[C@H](O[C@@H]2O[C@H](CO)[C@@H](O)[C@H](O)[C@H]2O)[C@H]1O[C@@H]1O[C@H](CO)[C@@H](O)[C@H](O)[C@H]1O)C3 [Rebaudioside M] | no differences | highest | highest | highest | highest | – | – | – | – | – | – | –
OC[C@H]1O[C@@](CO)(O[C@H]2O[C@H](CO)[C@@H](O)[C@H](O)[C@H]2O)[C@@H](O)[C@@H]1O [sucrose] | – | – | – | – | – | 2.58 | 31 | 73 | 0 | 100 | 98 | neutral or above the neutral

Source: US20260101916A1, “SWEETENED FIBER AND METHODS THEREOF” (ZeroIN Foods Inc., priority 2022, published 2026)
